Results: patent publication US20240368163A1, “COMPOUNDS AND METHODS FOR MODULATING SPLICING” (REMIX THERAPEUTICS INC., priority 2021, published 2024)
Read-outs that look alike come from different tables or passages of the source.

Columns and labels:
Assay type in all cases: cell-based, human
HTT [1] = assay: Splicing RT-qPCR assay, HTT mRNA canonical junction (CJ) and alternative junction (AJ); conditions: Homo sapiens; for AC50: increase in AJ mRNA
In short: (§1)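 Cells: A673 (DMEM/10% FBS) or K562 (IMDM/10% FBS). Dose: 11-pt 3-fold, top 10 uM final, ≤0.25% DMSO, 24 h, 37 °C. Readout: RT-qPCR of CJ/AJ exon junctions, ΔΔCt vs housekeeper and DMSO, RQ to % response.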

SMN2 = assay: Splicing RT-qPCR panel, SMN2 canonical junction (CJ) mRNA; conditions: Homo sapiens, read-out: SMN2 IC50 (decrease in CJ mRNA levels)
In short: as §1

Target C [2] = assay: HiBiT protein abundance assay, Target C; conditions: Homo sapiens, K562, 24 h, modified K562 cells
In short: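 HiBiT knock-in K562-derived cells, 10000 cells/well, were treated 24 h at 37 °C with a 10-point 3-fold dilution series (top 10 μM final, DMSO ≤0.25%). Lytic HiBiT luminescence was normalized to unmodified K562 and DMSO controls; IC50 was interpolated at 50% from a four-parameter logistic fit.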

HTT [3] = assay: HiBiT protein abundance assay, HTT; conditions: Homo sapiens, K562, 24 h, modified K562 cells
In short: (§2)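 K562 cells with endogenous HiBiT-tagged target were treated 24 h at 37 °C with compound (10-point 3-fold dilution, top 10 μM final, DMSO ≤0.25%). Lytic LgBiT luminescence was normalized to unmodified K562 (baseline) and DMSO-treated tagged cells; IC50 interpolated at 50% from four-parameter logistic fit.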

MYB [4] = assay: Splicing RT-qPCR assay, MYB mRNA canonical junction (CJ) and alternative junction (AJ); conditions: Homo sapiens; for AC50: increase in AJ mRNA
In short: as §1

MYB [5] = assay: HiBiT protein abundance assay, MYB; conditions: Homo sapiens, K562, 24 h, modified K562 cells
In short: as §2

Target C [6] = assay: Splicing RT-qPCR panel, Target C canonical junction (CJ) mRNA; conditions: Homo sapiens, read-out: Target C IC50 (decrease in CJ mRNA levels)
In short: as §1

[7] = gene panel, CJ qPCR, protocol of Example 142, read-out: HTT IC50 (decrease in CJ mRNA levels)
[8] = gene panel, CJ qPCR, protocol of Example 142
[9] = gene panel, CJ qPCR, protocol of Example 142, read-out: MYB IC50 (decrease in CJ mRNA levels)
[10] = 24 h, decrease in CJ mRNA, A673 or K562 cells, 24 hours treatment, RT-qPCR, read-out: HTT CJ IC50
[11] = 24 h, A673 or K562 cells, 24 hours treatment, RT-qPCR
[12] = RT-qPCR panel, canonical junction mRNA, compound concentration having 50% response in CJ decrease, read-out: HTT IC50 (decrease in CJ mRNA levels)
[13] = RT-qPCR panel, canonical junction mRNA, compound concentration having 50% response in CJ decrease
[14] = 24 h, decrease in CJ mRNA, A673 or K562 cells, 24 hours treatment, RT-qPCR, read-out: MYB CJ IC50
[15] = RT-qPCR panel, canonical junction mRNA, compound concentration having 50% response in CJ decrease, read-out: MYB IC50 (decrease in CJ mRNA levels)

| Structure (SMILES) | IC50 (HTT [1]; [7]) [µM] | IC50 (SMN2; [8]) [nM] | IC50 (Target C [2]; Table 13B) [µM] | IC50 (HTT [3]; Table 13B) [nM] | IC50 (MYB [4]; [9]) [µM] | IC50 (MYB [5]; Table 13B) [nM] | IC50 (Target C [6]; [8]) [µM] | IC50 (HTT [1]; [10]) [µM] | AC50 (HTT [1]; [11]) [µM] | IC50 (HTT [1]; [12]) [µM] | IC50 (SMN2; [13]) [nM] | IC50 (Target C [2]; Table 13A) [µM] | IC50 (HTT [3]; Table 13A) [nM] | IC50 (MYB [4]; [14]) [µM] | AC50 (MYB [4]; [11]) [µM] | IC50 (MYB [4]; [15]) [µM] | IC50 (MYB [5]; Table 13A) [nM] | IC50 (Target C [6]; [13]) [µM] |
| --- | --- | --- | --- | --- | --- | --- | --- | --- | --- | --- | --- | --- | --- | --- | --- | --- | --- | --- |
| COc1nc(-c2ccc(N3CCC(NC(C)(C)C)C3)nn2)ccc1-n1cccn1 (stereo not shown) [Compound 957] | 1 to 10 | 1000 to 10000 | 1 to 10 | 1000 to 10000 | 1 to 10 | 1000 to 10000 | 1 to 10 | – | – | – | – | – | – | – | – | – | – | – |
| COc1nc(-c2ccc(N(C)[C@@H]3C[C@H]4CC[C@@H](C3)N4)nn2)ncc1-c1cn[nH]c1 [Compound 913] | 1 to 10 | 1000 to 10000 | 1 to 10 | 1000 to 10000 | 1 to 10 | 1000 to 10000 | 1 to 10 | – | – | – | – | – | – | – | – | – | – | – |
| c1n[nH]cc1-c1ccc(-c2ccc(N3CC4(CCCNC4)C3)nn2)c2[nH]ncc12 [Compound 218] | – | – | – | – | – | – | – | > 10 | > 10 | > 10 | > 10000 | > 10 | > 10000 | > 10 | > 10 | > 10 | > 10000 | > 10 |
| COc1nc(-c2cnc(N(C)[C@@H]3C[C@H]4CC[C@@H](C3)N4)cn2)ccc1-c1cn[nH]c1 [Compound 980] | 1 to 10 | > 10000 | 1 to 10 | 1000 to 10000 | 1 to 10 | 1000 to 10000 | 1 to 10 | – | – | – | – | – | – | – | – | – | – | – |
| CN(c1ccc(-c2ccc(-c3cnn(C4CC4)n3)c3cn[nH]c23)nn1)[C@@H]1C[C@H]2CC[C@@H](C1)N2 [Compound 312, (1R,3s,5S)-N-(6-(4-(2-cyclopropyl-2H-1,2,3-triazol-4-yl)-1H-indazol-7-yl)pyridazin-3-yl)-N-methyl-8-azabicyclo[3.2.1]octan-3-amine] | – | – | – | – | – | – | – | 1 to 10 | 1 to 10 | 1 to 10 | 100 to 1000 | 1 to 10 | 100 to 1000 | 1 to 10 | 0.1 to 1 | 1 to 10 | 100 to 1000 | 1 to 10 |
| [2H]C([2H])([2H])N(c1ccc(-c2ccc(-c3cn[nH]c3)c3cn[nH]c23)nn1)[C@@H]1C[C@H]2CCC[C@@H](C1)N2 [Compound 296] | – | – | – | – | – | – | – | – | < 0.1 | < 0.1 | < 100 | < 0.1 | < 100 | 0.1 to 1 | < 0.1 | 0.1 to 1 | < 100 | < 0.1 |
| c1n[nH]cc1-c1ccc(-c2ccc(N3CCCC4(CCNC4)C3)nn2)c2[nH]ncc12 (stereo not shown) [Compound 253] | – | – | – | – | – | – | – | > 10 | > 10 | > 10 | > 10000 | > 10 | > 10000 | > 10 | > 10 | > 10 | > 10000 | > 10 |
| CNCC1CCN(c2ncc(-c3ccc(-c4cn[nH]c4)c4ncsc34)nn2)C1 (stereo not shown) [Compound 411, N-methyl-1-[1-[6-[4-(1H-pyrazol-4-yl)-1,3-benzothiazol-7-yl]-1,2,4-triazin-3-yl]pyrroledin-3-yl]metha-namine] | – | – | – | – | – | – | – | 1 to 10 | > 10 | 1 to 10 | 1000 to 10000 | > 10 | > 10000 | > 10 | > 10 | > 10 | > 10000 | > 10 |
| c1nc2c(-c3cn[nH]c3)ccc(-c3ccc(N[C@H]4C[C@H]5COC[C@@H](C4)N5)nn3)c2s1 [Compound 353] | – | – | – | – | – | – | – | > 10 | 1 to 10 | > 10 | 1000 to 10000 | > 10 | 1000 to 10000 | 1 to 10 | > 10 | 1 to 10 | 1000 to 10000 | 1 to 10 |
| Cc1cc(-c2ccc(-c3ccc(O[C@@H]4C[C@H]5CC[C@@H](C4)N5)nn3)c3scnc23)ccn1 [Compound 349] | – | – | – | – | – | – | – | 1 to 10 | 1 to 10 | 1 to 10 | < 100 | 1 to 10 | 100 to 1000 | 1 to 10 | > 10 | 1 to 10 | 100 to 1000 | 1 to 10 |
